# Data as given in US7872014B2, “Anaplastic lymphoma kinase modulators and methods of use” (Exelixis, Inc., priority 2003, dated 2011).
# Counter-ions that a name gives are not always drawn.
# Target: T1, ALK (baculovirus expressed human ALK kinase domain F1098-K1410) (Homo sapiens, UniProt Q9UM73)
# T1 construct: baculovirus expressed human ALK kinase domain F1098-K1410; made in house
# Assay: Luciferase-Coupled Chemiluminescent Kinase assay (LCCA), ALK biochemical activity
# Settings: inhibition of ALK; mean values; 1 μM ATP, 4 μM poly-AEKY, 12 nM ALK, 2 hours ambient temperature
# Method: ALK biochemical activity was assessed using a Luciferase-Coupled Chemiluminescent Kinase assay (LCCA) format in which kinase activity was measured as the percent ATP remaining following the kinase reaction. ATP remaining after the kinase reaction was detected by luciferase-luciferin-coupled chemiluminescence.
# The reaction was initiated by mixing test compounds, 1 μM ATP, 4 μM poly-AEKY and 12 nM ALK (baculovirus expressed human ALK kinase domain F1098-K1410) in a 20 μL assay buffer ([…] pH 7.5, 10 mM MgCl2, 0.02% Triton X-100, 100 mM DTT, 2 mM MnCl2). The mixture was incubated at ambient temperature for 2 hours after which 20 μL luciferase-luciferin mix was added and the chemiluminescent signal read using a Wallac Victor^2 reader. The luciferase-luciferin mix consists of 50 mM HEPES, pH 7.8, 8.5 μg/mL oxalic acid (pH 7.8), 5 (or 50) mM DTT, 0.4% Triton X-100, 0.25 mg/mL coenzyme A, 63 μM AMP, 28 μg/mL luciferin and 40,000 units of light/mL luciferase.
# Consumption of ATP by ALK can thus be quantified and utilized as a measure of inhibition of ALK activity by compounds described herein. By employing serial dilutions of compounds to be tested, the ability of test compounds to inhibit ALK activity can be determined.
# T1 sequence (Q9UM73 1098-1410): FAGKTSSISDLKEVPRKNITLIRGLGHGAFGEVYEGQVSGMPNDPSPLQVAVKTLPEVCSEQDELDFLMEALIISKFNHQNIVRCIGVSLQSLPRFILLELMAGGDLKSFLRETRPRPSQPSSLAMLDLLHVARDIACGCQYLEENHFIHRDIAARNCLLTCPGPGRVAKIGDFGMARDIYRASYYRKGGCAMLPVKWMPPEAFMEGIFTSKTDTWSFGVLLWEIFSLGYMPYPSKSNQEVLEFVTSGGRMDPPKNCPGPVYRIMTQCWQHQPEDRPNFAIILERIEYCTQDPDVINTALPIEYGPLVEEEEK
row,Compound,IC50 [nM]
1,"COc1cc2c(-c3ccc(O)cc3)nc3[nH]nc(C)c3c2c(OC)c1OC [Example 35, 4-[1-methyl-7,8,9-tris(methyloxy)-3H-pyrazolo[3,4-c]isoquinolin-5-yl]phenol]",≤ 99
2,"COc1ccc2c(-c3ccc(O)cc3)nc3[nH]nc(C)c3c2c1 [Example 36, 4-[1-methyl-8-(methyloxy)-3H-pyrazolo[3,4-c]isoquinolin-5-yl]phenol]",≤ 99
3,"COc1cc2c(-c3ccc(O)cc3)nc3[nH]nc(Cc4cccc(C)c4)c3c2cc1OC [Example 14, hydrochloride]",100 to 999
4,"COc1cc2c(-c3cc(Cl)c(O)cc3F)nc3[nH]nc(C)c3c2cc1OC [Example 121, 2-chloro-5-fluoro-4-[1-methyl-7,8-bis(methyloxy)-3H-pyrazolo[3,4-c]isoquinolin-5-yl]phenol]",≤ 99
5,"COc1cc2c(-c3ccc(O)c(Cl)c3)nc3[nH]nc(C)c3c2cc1OCC1CCN(C(C)C)CC1 [Example 103, 2-chloro-4-[1-methyl-8-({[1-(1-methylethyl)piperidin-4-yl]methyl}oxy)-7-(methyloxy)-3H-pyrazolo[3,4-c]isoquinolin-5-yl]phenol]",≤ 99
6,"Cc1n[nH]c2nc(-c3cccc(Cl)c3)c3ccc4c(c3c12)OCCO4 [Example 149, 7-(3-chlorophenyl)-11-methyl-2,3-dihydro-9H-[1,4]dioxino[2,3-f]pyrazolo[3,4-c]isoquinoline]",> 2000
7,"COc1cc(-c2nc3[nH]nc(C)c3c3cc(OC)c(OC)cc23)ccc1O [Example 38, 4-[1-methyl-7,8-bis(methyloxy)-3H-pyrazolo[3,4-c]isoquinolin-5-yl]-2-(methyloxy)phenol]",100 to 999
8,"COCCOc1cc2c(-c3ccc(O)c(Cl)c3)nc3[nH]nc(C)c3c2cc1OCCOC [Example 117, 2-chloro-4-(1-methyl-7,8-bis{[2-(methyloxy)ethyl]oxy}-3H-pyrazolo[3,4-c]isoquinolin-5-yl)phenol]",100 to 999
9,"CCOc1cc2c(-c3ccc(O)cc3)nc3[nH]nc(C)c3c2cc1OC [Example 60, 4-[7-(ethyloxy)-1-methyl-8-(methyloxy)-3H-pyrazolo[3,4-c]isoquinolin-5-yl]phenol]",100 to 999
10,"COc1cc2c(c(-c3ccc(O)cc3)nc3[nH]ncc32)c(OC)c1OC [Example 34, 4-[6,7,8-tris(methyloxy)-3H-pyrazolo[3,4-c]isoquinolin-5-yl]phenol]",≤ 99
11,"CCc1cc(-c2nc3[nH]nc(C)c3c3cc(OC)c(OC)cc23)ccc1O [Example 63, 2-ethyl-4-[1-methyl-7,8-bis(methyloxy)-3H-pyrazolo[3,4-c]isoquinolin-5-yl]phenol]",100 to 999
12,"COc1cc(F)c2c(-c3ccc(O)cc3)nc3[nH]nc(C)c3c2c1F [Example 79, 4-[6,9-difluoro-1-methyl-8-(methyloxy)-3H-pyrazolo[3,4-c]isoquinolin-5-yl]phenol]",≤ 99
13,"COc1cc2c(-c3cc(C)c(O)cc3C)nc3[nH]nc(C)c3c2cc1OC [Example 83, 2,5-dimethyl-4-[1-methyl-7,8-bis(methyloxy)-3H-pyrazolo[3,4-c]isoquinolin-5-yl]phenol]",100 to 999
14,"COc1cc2c(-c3ccc(O)cc3)nc3[nH]nc(C(F)(F)F)c3c2cc1OC [Example 27, 4-[7,8-bis(methyloxy)-1-(trifluoromethyl)-3H-pyrazolo[3,4-c]isoquinolin-5-yl]phenol]",100 to 999
15,"Cc1n[nH]c2nc(-c3ccc(O)c(Br)c3)c3ccccc3c12 [Example 100, 2-bromo-4-(1-methyl-3H-pyrazolo[3,4-c]isoquinolin-5-yl)phenol]",≤ 99
16,"COCCOc1c(OC)ccc2c(-c3ccc(O)c(Cl)c3)nc3[nH]nc(C)c3c12 [Example 112, 2-chloro-4-(1-methyl-8-(methyloxy)-9-{[2-(methyloxy)ethyl]oxy}-3H-pyrazolo[3,4-c]isoquinolin-5-yl)phenol]",≤ 99
17,"COc1ccc2c(-c3ccc(O)cc3)nc3[nH]nc(C)c3c2c1OCC1CCNCC1 [Example 61, 4-{1-methyl-8-(methyloxy)-9-[(piperidin-4-ylmethyl)oxy]-3H-pyrazolo[3,4-c]isoquinolin-5-yl}phenol]",≤ 99

# More lines, now with the values ahead:
row,IC50 [nM],Compound
1,≤ 99,"CCN1CCN(CCOc2cc(F)c3c(-c4ccc(O)c(Cl)c4)nc4[nH]nc(C)c4c3c2OC)CC1 [Example 196, 2-chloro-4-[8-{[2-(4-ethylpiperazin-1-yl)ethyl]oxy}-6-fluoro-1-methyl-9-(methyloxy)-3H-pyrazolo[3,4-c]isoquinolin-5-yl]phenol]"
2,≤ 99,"CCN1CCC(CCOc2cc(F)c3c(-c4ccc(O)c(Cl)c4)nc4[nH]nc(C)c4c3c2OC)CC1 [Example 218, 2-chloro-4-[8-{[2-(1-ethylpiperidin-4-yl)ethyl]oxy}-6-fluoro-1-methyl-9-(methyloxy)-3H-pyrazolo[3,4-c]isoquinolin-5-yl]phenol]"
3,≤ 99,"COc1c(OC2CC3CCC(C2)N3C)cc(F)c2c(-c3ccc(O)c(Cl)c3)nc3[nH]nc(C)c3c12 (centres unmarked) [Example 223, 2-chloro-4-[6-fluoro-1-methyl-8-[(8-methyl-8-azabicyclo[3.2.1]oct-3-yl)oxy]-9-(methyloxy)-3H-pyrazolo[3,4-c]isoquinolin-5-yl]phenol]"
4,≤ 99,"COCCOc1cc2c(c(-c3ccc(O)c(Cl)c3)nc3[nH]nc(C)c32)c(F)c1OC [Example 179, 2-chloro-4-(6-fluoro-1-methyl-7-(methyloxy)-8-{[2-(methyloxy)ethyl]oxy}-3H-pyrazolo[3,4-c]isoquinolin-5-yl)phenol]"
5,1000 to 2000,"CC(=O)Nc1ncc(-c2nc3[nH]nc(C)c3c3c(F)c(O)cc(F)c23)s1 [Example 203, N-[5-(6,9-difluoro-8-hydroxy-1-methyl-3H-pyrazolo[3,4-c]isoquinolin-5-yl)-1,3-thiazol-2-yl]acetamide]"
6,≤ 99,"COc1c(OCCN(C(C)C)C(C)C)cc(F)c2c(-c3ccc(O)c(Cl)c3)nc3[nH]nc(C)c3c12 [Example 243, 4-[8-({2-[bis(1-methylethyl)amino]ethyl}oxy)-6-fluoro-1-methyl-9-(methyloxy)-3H-pyrazolo[3,4-c]isoquinolin-5-yl]-2-chlorophenol]"
7,≤ 99,"COc1c(OCCN2CCCC3CCCCC32)cc(F)c2c(-c3ccc(O)c(Cl)c3)nc3[nH]nc(C)c3c12 (centres unmarked) [Example 242, 2-chloro-4-(6-fluoro-1-methyl-9-(methyloxy)-8-{[2-(octahydroquinolin-1(2H)-yl)ethyl]oxy}-3H-pyrazolo[3,4-c]isoquinolin-5-yl)phenol]"
8,≤ 99,"COc1c(OCC2CCN(C)CC2)cc2c(c(-c3ccc(O)c(Cl)c3)nc3[nH]nc(C)c32)c1F [Example 171, 2-chloro-4-(6-fluoro-1-methyl-7-(methyloxy)-8-{[(1-methylpiperidin-4-yl)methyl]oxy}-3H-pyrazolo[3,4-c]isoquinolin-5-yl)phenol]"
9,≤ 99,"COc1c(OCCN2CCN(CC(=O)NC(C)C)CC2)cc(F)c2c(-c3ccc(O)c(Cl)c3)nc3[nH]nc(C)c3c12 [Example 235, 2-[4-(2-{[5-(3-chloro-4-hydroxyphenyl)-6-fluoro-1-methyl-9-(methyloxy)-3H-pyrazolo[3,4-c]isoquinolin-8-yl]oxy}ethyl)piperazin-1-yl]-N-(1-methylethyl)acetamide]"
10,≤ 99,"COc1cc2c(-c3ccc(O)c(Cl)c3)nc3[nH]nc(C)c3c2cc1OC1CCCC1 [Example 166, 2-chloro-4-[8-(cyclopentyloxy)-1-methyl-7-(methyloxy)-3H-pyrazolo[3,4-c]isoquinolin-5-yl]phenol]"
11,≤ 99,"COc1c(OCCCN2CCOCC2)cc(F)c2c(-c3ccc(O)c(Cl)c3)nc3[nH]nc(C)c3c12 [Example 226, 2-chloro-4-{6-fluoro-1-methyl-9-(methyloxy)-8-[(3-morpholin-4-ylpropyl)oxy]-3H-pyrazolo[3,4-c]isoquinolin-5-yl}phenol]"
12,≤ 99,"CCN1CC2CC1CN2CCOc1cc(F)c2c(-c3ccc(O)c(Cl)c3)nc3[nH]nc(C)c3c2c1OC (centres unmarked) [Example 215, 2-chloro-4-[8-{[2-(5-ethyl-2,5-diazabicyclo[2.2.1]hept-2-yl)ethyl]oxy}-6-fluoro-1-methyl-9-(methyloxy)-3H-pyrazolo[3,4-c]isoquinolin-5-yl]phenol]"
13,≤ 99,"Cc1n[nH]c2nc(-c3cc(Cl)c(O)cc3F)c3c(F)cc4c(c3c12)OCCO4 [Example 165, 2-chloro-5-fluoro-4-(6-fluoro-11-methyl-2,3-dihydro-9H-[1,4]dioxino[2,3-f]pyrazolo[3,4-c]isoquinolin-7-yl)phenol]"
14,≤ 99,"COc1c(OCCN2CCN(C(C)C)CC2)cc(F)c2c(-c3ccc(O)c(Cl)c3)nc3[nH]nc(C)c3c12 [Example 216, 2-chloro-4-[6-fluoro-1-methyl-8-({2-[4-(1-methylethyl)piperazin-1-yl]ethyl}oxy)-9-(methyloxy)-3H-pyrazolo[3,4-c]isoquinolin-5-yl]phenol]"
15,≤ 99,"COc1c(OCCN2CCCCC2)cc2c(c(-c3ccc(O)c(Cl)c3)nc3[nH]nc(C)c32)c1F [Example 176, 2-chloro-4-{6-fluoro-1-methyl-7-(methyloxy)-8-[(2-piperidin-1-ylethyl)oxy]-3H-pyrazolo[3,4-c]isoquinolin-5-yl}phenol]"
